# Literature values as cited in patent US8236331B2, “Cosmetic cooling composition” (Coty Deutschland GmbH, priority 2004, dated 2012).
# Conditions: WO 03/007909, no period of time specified
smiles,measurement,value
CCCCCCCCCCCCCCCC(=O)OC [methyl palmitate],cooling effect as described,long-lasting
